Source: US10933134B2, “Combination therapies for treatment of cancer” (priority 2017, dated 2021)
Non-standard residues stand in square brackets, D forms with d. Residues, ends and D or L forms follow the SMILES beside them. *: point of attachment. dPhe(4-NHCONH2) = NC(=O)Nc1ccc(C[C@@H](N)C(=O)O)cc1; Dihydroorotyl(S) = O=C1C[C@@H](C(=O)*)NC(=O)N1; dPhe(4-Cl) = N[C@H](Cc1ccc(Cl)cc1)C(=O)O; Phe(4-NH2) = Nc1ccc(C[C@H](N)C(=O)O)cc1; d2Nal = N[C@H](Cc1ccc2ccccc2c1)C(=O)O; Lys(iPr) = CC(C)NCCCC[C@H](N)C(=O)O; d3Pal = N[C@H](Cc1cccnc1)C(=O)O

Tests used:
[1] = test system: LNCaP-AR xenograft tumors; assay: GSEA transcriptome analysis of LNCaP-AR xenografts following VTP; format: in vivo, SCID mice
Procedure: (vi) GSEA for transcriptome analysis of LNCaP-AR xenografts following VTP treatment: LNCaP/AR xenografts were established in intact SCID mice by injecting 2 million cells as described previously [Chen et al., 2004] and, once established, were treated with VTP at 9 mg/kg WST11 followed by 753 nm illumination at 100 mW/cm^2 laser fluence. Tumors were collected at 3, 6, or 24 hours, 1 week and 8.5 weeks post VTP and RNA was isolated following the standard protocol using TRIzol (Fisher Scientific). Expression profiling was performed using Illumina HT-12 Expression BeadChip array and the data was analyzed using Partek Genomics Suite (Partek Inc., St. Louis, Mo.). The microarray data then underwent secondary analysis by GSEA [Subramanian et al., 2005] using gene sets from the Hallmark and C2, Canonical Pathways collections (Molecular Signature Databases v6.0 (MSigDB); Broad Institute at http site //software.broadinstitute.org/gsea/msigdb.GSEA| MSigDB. Accessed 19 Jun. 2017. Microarray data has been deposited in the National Center for Biotechnology Information Gene Expression Omnibus (GEO) (GSE109681). To identify potential druggable pathways active in PCa that could be exploited for combination therapy with VTP, we analyzed the transcriptome of LNCaP-AR xenograft tumors following acute response to VTP exposure. […]

[2] = test system: low-risk, localized PCa; conditions: cited from earlier work
[3] = test system: total PSA (tPSA); assay: Serum total PSA in mice bearing LNCaP-AR tumors; format: in vivo; conditions: one, three, or seven days post-WST11 VTP (FIG. 5A)
Procedure: This assay measures free PSA and complexed PSA in an equimolar fashion [Ulmert et al., 2012; Mitrunen et al., 1995], and the cross-reactivity of PSA-ACT for free PSA is less than 0.2% [Pettersson et al., 1995]. The lower limits of detection are 0.1 ng/mL for both total PSA and free PSA. For detection, the 1235 automatic immunoassay system from Perkin-Elmer Life Sciences (Waltham, Mass.) was used.
(vii) Statistical analysis: Two-way ANOVA test using GraphPad Prism (GraphPad Software, La Jolla, Calif.) was used for therapeutic efficacy in affecting tumor growth, and One-way ANOVA for PSA and a Mann-Whitney test for CD31, Ki67 or TUNEL staining quantification. Differences with p values<0.05 were considered statistically significant.
To verify that AR activity was inhibited by the treatments, the levels of total PSA (tPSA) in serum of mice bearing LNCaP-AR tumors were measured. Serum tPSA values were determined in separate cohorts of mice at one, three, or seven days post-WST11 VTP (four, six or ten days post-degarelix).

[4] = test system: LNCaP-AR tumors; assay: Histology and immunohistochemistry of treated tumors (TUNEL, AR, Ki67); format: in vivo, mice; conditions: for TUNEL staining (cell death): tumors on days three and seven post-VTP (FIG. 5B)
Procedure: (§1) (v) Histology and immunohistochemistry: All tumor specimens were fixed in 10% buffered formalin (Fisher Scientific, Pittsburgh, Pa.), processed routinely, embedded in paraffin, sectioned at 5-micron thickness, and stained with hematoxylin-eosin (H&E). Immunohistochemistry (IHC) of tumors was performed on 5 micron formalin-fixed paraffin embedded (FFPE) section following heat induced epitope retrieval (HIER) in a buffer at pH 9.0. AR staining with anti-AR antibody (at 0.66 μg/ml, Abcam, Cambridge, Mass.) and TUNEL staining for cell death with terminal deoxynucleotidyl transferase dUTP nick-end labeling (Roche Diagnostics, Indianapolis, Ind.) was performed using Discovery XT processor (Ventana Medical Systems, Inc., Tucson, Ariz.) at the Molecular Cytology core facility. IHC staining for CD31 and Ki67 markers was performed on FFPE sections at the Laboratory of Comparative Pathology on a Leica Bond RX automated stainer (Leica Biosystems, Buffalo Grove, Ill.). […] For quantification of CD31, Ki67 and TUNEL staining, whole slide digital images were generated on a scanner (Pannoramic 250 Flash III, 3DHistech, 20×/0.8NA objective, Budapest, Hungary) at a resolution of 0.2431 μm per pixel. Staining quantification was performed with QuPath 0.1.2 software (Centre for Cancer Research & Cell Biology, Queen's University Belfast, UK). […] For CD31 and TUNEL, the positive area, defined as the ratio of DAB stained pixels to total ROI area, was measured using the positive pixel count algorithm. For Ki67, the ratio (percentage) of cells with positive nuclear staining to total cell number was measured with the positive cell detection algorithm. […]
(§2) (vii) Statistical analysis: Two-way ANOVA test using GraphPad Prism (GraphPad Software, La Jolla, Calif.) was used for therapeutic efficacy in affecting tumor growth, and One-way ANOVA for PSA and a Mann-Whitney test for CD31, Ki67 or TUNEL staining quantification. […]

[5] = test system: CD31; assay: CD31 IHC staining of tumors (vessel quantification); format: in vivo, mice
Procedure: as §1, with “9.0.” for “9.0. AR staining with anti-AR antibody (at 0.66 μg/ml, Abcam, Cambridge, Mass.) and TUNEL staining for cell death with terminal deoxynucleotidyl transferase dUTP nick-end labeling (Roche Diagnostics, Indianapolis, Ind.) was performed using Discovery XT processor (Ventana Medical Systems, Inc., Tucson, Ariz.) at the Molecular Cytology core facility. IHC staining for CD31 and Ki67 markers was performed on FFPE sections at the Laboratory of Comparative Pathology on a Leica Bond RX automated stainer (Leica Biosystems, Buffalo Grove, Ill.).”
as §2

| SMILES | gene sets related to hypoxia, HIF1A, and VEGFR pathways (GSEA) ([1]; three to six hours post-VTP treatment) | AR signaling gene sets (GSEA) ([1]; three to six hours post-VTP, vs control mice) | patients negative for cancer in follow up biopsies ([2]; 6 months after prostate hemiablation, low-risk localized PCa) [%] | HR of disease progression versus active surveillance ([2]; at 24 months, 95% CI 0.24-0.46, p<0.0001) | disease progression ([2]; at 24 months, active surveillance 58%) [%] | patients free of clinically significant cancer in the treated lobes ([2]; median follow-up of 68 months) [%] | treated patients who avoided a need for subsequent radical therapy ([2]; median follow-up of 68 months) [%] | fold changes of serum tPSA [3] | TUNEL staining (cell death) [4] | number of vessels in tumors by CD31 image analysis ([5]; FIG. 6A, versus control group) | decrease in CD31 staining area compared to controls ([5]; degarelix-treated n=11 vs control n=12, p<0.05 (FIG. 6B)) [%] | Ki67 signal (tumor proliferation) ([4]; day 7 post-VTP, p<0.05 vs controls (FIG. 5C)) |
| --- | --- | --- | --- | --- | --- | --- | --- | --- | --- | --- | --- | --- |
| CCC1c2cc3[n-]c(c(CC(=O)OC)c4nc(cc5[n-]c(cc(n2)C1C)c(C(C)=O)c5C)C(C)C4CCC(=O)[O-])c(C(=O)NCCS(=O)(=O)[O-])c3C.[K+].[K+].[Pd+2] (centres unmarked) [WST11/VTP, Palladium 3^1-oxo-15-methoxycarbonylmethyl-rhodobacteriochlorin 13^1-(2-sulfoethyl) amide dipotassium salt] | statistically significant enrichments | up-regulated | 80.6 | 0.34 | 28 | 82 | 76 | declined | partial cell death characterized by large foci of TUNEL staining | – | – | – |
| CC(=O)N[C@H](Cc1ccc2ccccc2c1)C(=O)N[C@H](Cc1ccc(Cl)cc1)C(=O)N[C@H](Cc1cccnc1)C(=O)N[C@@H](CO)C(=O)N[C@@H](Cc1ccc(NC(=O)[C@@H]2CC(=O)NC(=O)N2)cc1)C(=O)N[C@H](Cc1ccc(NC(N)=O)cc1)C(=O)N[C@@H](CC(C)C)C(=O)N[C@@H](CCCCNC(C)C)C(=O)N1CCC[C@H]1C(=O)N[C@H](C)C(N)=O [degarelix] (Ac-[d2Nal][dPhe(4-Cl)][d3Pal]S[Phe(4-NH2)](Dihydroorotyl(S))[dPhe(4-NHCONH2)]L[Lys(iPr)]P[dA]-NH2) | – | – | – | – | – | – | – | declined | little TUNEL staining | appear to have fewer vessels | 38 | reduced Ki67 signal compared to controls |
